The nature of experiment [1]: Antioxidant activity assessed as ABTS radical scavenging activity at 2 uM by spectrophotometric analysis. The class given is functional.
In experiment [2] the test system is DNA. Description: Induction of Escherichia coli DNA cleavage at 2 uM after 1 hr by […] staining-based agarose gel electrophoresis. The experiment is classed as nucleic-acid assay.
Experiment [3] can be described thus: Antioxidant activity assessed as superoxide anion scavenging activity at pH 8.3 by NBT/NADH/PMS assay. The experiment is classed as functional.
Experiment [4] relates to DNA. Description: Induction of Escherichia coli DNA cleavage at 8 uM after 1 hr by […] staining-based agarose gel electrophoresis. The class given is nucleic-acid assay.
Experiment [5] is described as follows: Antiproliferative activity against hepatic cancer cells (unknown origin) at 50 uM by MTT assay relative to control. The class given is functional.
Experiment [6] concerns DNA. Description: Induction of Escherichia coli DNA cleavage after 1 hr by […] staining-based agarose gel electrophoresis. The class given is nucleic-acid assay.
Experiment [7] concerns Pseudomonas aeruginosa. Description: Antibacterial activity against Pseudomonas aeruginosa ATCC 27853 after 24 hrs by serial dilution method. The class given is functional. As to conditions: ATCC 27853, 24 h.
In experiment [8] the test system is DNA. Description: Induction of Escherichia coli DNA cleavage at 10 to 12 uM after 1 hr by […] staining-based agarose gel electrophoresis. The class given is nucleic-acid assay.
Experiment [9] concerns Staphylococcus aureus. Description: Antibacterial activity against Staphylococcus aureus ATCC 25923 after 24 hrs by serial dilution method. Particulars: ATCC 25923, 24 h. The class given is functional.
In experiment [10] the test system is Escherichia coli. Description: Antibacterial activity against Escherichia coli ATCC 25922 assessed as diameter of inhibition zone at 100 uM after 24 hrs by cup diffusion method. The class given is functional. Particulars: ATCC 25922, 24 h, read-out: DIZ.
The subject of a further experiment is Priestia megaterium. Description: Antibacterial activity against Bacillus megaterium ATCC 14591 assessed as diameter of inhibition zone at 100 uM after 24 hrs by cup diffusion method. The class given is functional. As to conditions: ATCC 14591, 24 h, read-out: DIZ.
Experiment [11] deals with Escherichia coli. Description: Antibacterial activity against Escherichia coli ATCC 25922 after 24 hrs by serial dilution method. The experiment is classed as functional. As to conditions: ATCC 25922, 24 h.
For experiment [12], the system named is Staphylococcus aureus. Description: Antibacterial activity against Staphylococcus aureus ATCC 25923 assessed as diameter of inhibition zone at 100 uM after 24 hrs by cup diffusion method. The class given is functional. Particulars: ATCC 25923, 24 h, read-out: DIZ.
Experiment [13] in a line: Antioxidant activity assessed as superoxide anion scavenging activity at 2 uM at pH 8.3 by NBT/NADH/PMS assay relative to control. The class given is functional.
In experiment [14] the test system is Pseudomonas aeruginosa. Description: Antibacterial activity against Pseudomonas aeruginosa ATCC 27853 assessed as diameter of inhibition zone at 100 uM after 24 hrs by cup diffusion method. The experiment is classed as functional. Particulars: ATCC 27853, 24 h, read-out: DIZ.
Experiment [15] has as its system DNA. Description: Induction of Escherichia coli DNA cleavage at 6 uM after 1 hr by […] staining-based agarose gel electrophoresis. The class given is nucleic-acid assay.
The subject of experiment [16] is DNA. Description: Induction of Escherichia coli DNA cleavage at 4 uM after 1 hr by […] staining-based agarose gel electrophoresis. The experiment is classed as nucleic-acid assay.

The structures appear in SMILES notation. ≈ marks a conversion by molar mass, not a printed value. Calls of active or inactive are those of the source. The rule behind the calls is not given here.

As to `COc1ccc(NC(=O)C2=C3c4ccccc4S(=O)(=O)N3CC2)cc1`, the Activity in experiment [1] was 48.2%; in experiment [3], “Dose-dependent effect”; in experiment [5] it was 61%; in the experiment with DNA [6] it was “Dose-dependent effect”; in experiment [13] it was 49.4%. Further, in the experiment with DNA [2], the result was inactive. Moreover, in experiment [3], the IC50 came to 2.02 µM. Besides, the outcome in the experiment on DNA [4] and in the experiment on DNA [8] was Active. The MIC came out at 33 µg/mL (≈ 92.6 µM) against Pseudomonas aeruginosa [7], 22 µg/mL (≈ 61.7 µM) against Staphylococcus aureus [9] and 22 µg/mL (≈ 61.7 µM) against Escherichia coli [11]. Further, the zone of inhibition at 100 µM in the experiment on Escherichia coli [10] turned out to be 15 mm; in the experiment on Priestia megaterium, 13 mm; in the experiment with Staphylococcus aureus [12] it was 16 mm; in the experiment with Pseudomonas aeruginosa [14], 14 mm.
Turning to `Cc1ccccc1NC(=O)C1=C2c3ccccc3S(=O)(=O)N2CC1`, the Activity in experiment [1] was 62.5%; in experiment [3], “Dose-dependent effect”; in [5], 49.6%; in the experiment on DNA [6], “Dose-dependent effect”; in experiment [13] it was 61.7%. In the experiment with DNA [2], the result was inactive. In addition, the IC50 in experiment [3] was 1.62 µM. Further, the result with DNA [15], with DNA [8] and in the experiment on DNA [16] was Active. For the same molecule, the MIC in the experiment with Pseudomonas aeruginosa [7] was determined as 17 µg/mL (≈ 49.9 µM); against Staphylococcus aureus [9], 12 µg/mL (≈ 35.3 µM); in the experiment with Escherichia coli [11], 11 µg/mL (≈ 32.3 µM). Moreover, the zone of inhibition at 100 µM stood at 17 mm in the experiment with Escherichia coli [10], 20 mm in the experiment with Priestia megaterium, 19 mm with Staphylococcus aureus [12] and 18 mm with Pseudomonas aeruginosa [14].
Turning to `CC(C)[C@@H]1CC[C@@H](C)C[C@H]1OC(=O)C1=C2c3ccccc3S(=O)(=O)N2CC1`, the Activity was 60.3% in [1]; “Dose-dependent effect” in experiment [3]; 70.2% in experiment [5]; “Dose-dependent effect” with DNA [6]; 58.6% in experiment [13]. In addition, the outcome in the experiment with DNA [2] was inactive. For the same molecule, the 50% inhibitory concentration (IC50) in experiment [3] was found to be 1.71 µM. Also, the outcome in the experiment on DNA [4], in the experiment on DNA [15], with DNA [8] and in the experiment with DNA [16] was Active. The minimum inhibitory concentration (MIC) in the experiment on Pseudomonas aeruginosa [7] is 25 µg/mL (≈ 64.2 µM); in the experiment with Staphylococcus aureus [9], 24 µg/mL (≈ 61.6 µM); against Escherichia coli [11], 33 µg/mL (≈ 84.7 µM). Also, the zone of inhibition at 100 µM was 17 mm in the experiment on Escherichia coli [10], 18 mm with Priestia megaterium, 19 mm in the experiment on Staphylococcus aureus [12] and 18 mm in the experiment with Pseudomonas aeruginosa [14].
Turning to `COC(=O)C1=C2c3ccccc3S(=O)(=O)N2CC1`, the Activity was 63.8% in experiment [1]; “Dose-dependent effect” in [3]; 36.6% in experiment [5]; “Dose-dependent effect” in the experiment on DNA [6]; 59.4% in experiment [13]. The result in the experiment with DNA [2] was inactive. Besides, the IC50 in experiment [3] was found to be 1.68 µM. Further, the result in the experiment with DNA [4], with DNA [15] and in the experiment with DNA [8] was Active. The minimal inhibitory concentration (MIC) against Pseudomonas aeruginosa [7] was determined as 14 µg/mL (≈ 52.8 µM); against Staphylococcus aureus [9] it was 15 µg/mL (≈ 56.5 µM); in the experiment with Escherichia coli [11] it was 15 µg/mL (≈ 56.5 µM). For the same molecule, the zone of inhibition at 100 µM turned out to be 17 mm with Escherichia coli [10], 19 mm in the experiment on Priestia megaterium, 20 mm in the experiment on Staphylococcus aureus [12] and 16 mm in the experiment with Pseudomonas aeruginosa [14].
`CCOC(=O)C1=C2c3ccccc3S(=O)(=O)N2CC1`: the Activity in experiment [1] was 46.7%; in [3], “Dose-dependent effect”; in experiment [5], 19.6%; in the experiment on DNA [6], “Dose-dependent effect”; in [13], 48.3%. The outcome with DNA [2] was inactive. In addition, the IC50 in experiment [3] came to 2.07 µM. The result in the experiment with DNA [4] and in the experiment on DNA [8] was Active. Further, the values for the MIC in the experiment with Pseudomonas aeruginosa [7], with Staphylococcus aureus [9] and in the experiment with Escherichia coli [11] were 15 µg/mL (≈ 53.7 µM), 14 µg/mL (≈ 50.1 µM) and 18 µg/mL (≈ 64.4 µM), respectively. Also, the zone of inhibition at 100 µM in the experiment with Escherichia coli [10] came out at 16 mm; in the experiment with Priestia megaterium it was 16 mm; with Staphylococcus aureus [12], 17 mm; in the experiment on Pseudomonas aeruginosa [14], 14 mm.
As to `O=C(OCCCl)C1=C2c3ccccc3S(=O)(=O)N2CC1`, the Activity in experiment [1] is 64.8%; in [3], “Dose-dependent effect”; in experiment [5], 59.6%; with DNA [6], “Dose-dependent effect”; in [13], 63.1%. Moreover, in the experiment with DNA [2], the result was inactive. The IC50 in experiment [3] stood at 1.58 µM. Besides, the outcome in the experiment with DNA [4], with DNA [15], in the experiment on DNA [8] and in the experiment with DNA [16] was Active. The results for the MIC in the experiment on Pseudomonas aeruginosa [7], with Staphylococcus aureus [9] and against Escherichia coli [11] were 20 µg/mL (≈ 63.7 µM), 8 µg/mL (≈ 25.5 µM) and 21 µg/mL (≈ 66.9 µM), respectively. In addition, the zone of inhibition at 100 µM turned out to be 17 mm with Escherichia coli [10], 20 mm in the experiment on Priestia megaterium, 20 mm in the experiment on Staphylococcus aureus [12] and 18 mm in the experiment on Pseudomonas aeruginosa [14].
Molecule `CN[C@H](CC(C)C)C(=O)N[C@H]1C(=O)N[C@@H](CC(N)=O)C(=O)N[C@H]2C(=O)N[C@H]3C(=O)N[C@H](C(=O)N[C@H](C(=O)O)c4cc(O)cc(O)c4-c4cc3ccc4O)[C@H](O)c3ccc(c(Cl)c3)Oc3cc2cc(c3O[C@@H]2O[C@H](CO)[C@@H](O)[C@H](O)[C@H]2O[C@H]2C[C@](C)(N)[C@H](O)[C@H](C)O2)Oc2ccc(cc2Cl)[C@H]1O` [VANCOMYCIN] returned an MIC against Staphylococcus aureus [9] of 14 µg/mL (≈ 9.66 µM).
As to `O=C(Nc1ccc([N+](=O)[O-])cc1)C1=C2c3ccccc3S(=O)(=O)N2CC1`, the Activity in [1] is 54.7%; in [3] it was “Dose-dependent effect”; in experiment [5], 56.6%; with DNA [6], “Dose-dependent effect”; in [13], 51.2%. For the same molecule, in the experiment on DNA [2], the result was inactive. For the same molecule, the IC50 in experiment [3] was determined as 1.95 µM. For the same molecule, the result with DNA [4] and in the experiment with DNA [8] was Active. For the same molecule, the minimum inhibitory concentration (MIC) was 19 µg/mL (≈ 51.2 µM) against Pseudomonas aeruginosa [7], 18 µg/mL (≈ 48.5 µM) in the experiment with Staphylococcus aureus [9] and 24 µg/mL (≈ 64.6 µM) against Escherichia coli [11]. Moreover, the zone of inhibition at 100 µM came to 13 mm with Escherichia coli [10], 11 mm in the experiment on Priestia megaterium, 12 mm in the experiment on Staphylococcus aureus [12] and 14 mm with Pseudomonas aeruginosa [14].
As for `O=C(Nc1ccccc1)C1=C2c3ccccc3S(=O)(=O)N2CC1`, the Activity in experiment [1] is 46.9%; in experiment [3] it was “Dose-dependent effect”; in [5], 58.6%; with DNA [6], “Dose-dependent effect”; in experiment [13] it was 44.8%. For the same molecule, the outcome in the experiment on DNA [2] was inactive. For the same molecule, in experiment [3], the half-maximal inhibitory concentration (IC50) came out at 2.23 µM. In addition, the results for the minimum inhibitory concentration (MIC) against Pseudomonas aeruginosa [7], against Staphylococcus aureus [9] and in the experiment with Escherichia coli [11] were 28 µg/mL (≈ 85.8 µM), 16 µg/mL (≈ 49 µM) and 21 µg/mL (≈ 64.3 µM), respectively. Further, the result in the experiment with DNA [8] was Active. Besides, the zone of inhibition at 100 µM in the experiment on Escherichia coli [10] was 13 mm; in the experiment on Priestia megaterium it was 12 mm; in the experiment on Staphylococcus aureus [12], 14 mm; with Pseudomonas aeruginosa [14] it was 12 mm.
On to `CC1(C)S[C@@H]2[C@H](NC(=O)[C@H](N)c3ccccc3)C(=O)N2[C@H]1C(=O)O` [AMPICILLIN], for which the zone of inhibition at 100 µM worked out at 19 mm with Escherichia coli [10], 21 mm with Priestia megaterium, 23 mm in the experiment on Staphylococcus aureus [12] and 20 mm in the experiment on Pseudomonas aeruginosa [14].
In the case of `CC1(C)[C@H]2CC[C@]1(C)[C@H](OC(=O)C1=C3c4ccccc4S(=O)(=O)N3CC1)C2`, the Activity in experiment [1] is 62.7%; in [3], “Dose-dependent effect”; in experiment [5], 63%; in the experiment with DNA [6] it was “Dose-dependent effect”; in [13], 60.1%. Besides, the result with DNA [2] was inactive. The half-inhibitory concentration (IC50) in [3] turned out to be 1.66 µM. The result with DNA [4], with DNA [15] and in the experiment on DNA [8] was Active. The MIC in the experiment on Pseudomonas aeruginosa [7] turned out to be 27 µg/mL (≈ 69.7 µM); against Staphylococcus aureus [9], 18 µg/mL (≈ 46.5 µM); with Escherichia coli [11], 23 µg/mL (≈ 59.4 µM). The zone of inhibition at 100 µM with Escherichia coli [10] came to 16 mm; in the experiment on Priestia megaterium, 17 mm; with Staphylococcus aureus [12], 18 mm; in the experiment on Pseudomonas aeruginosa [14], 14 mm.

The IC50 is the concentration that gives 50% inhibition. In general, MIC refers to the lowest concentration that inhibits growth of the organism. Read a high MIC as a need for much substance.

(Values after ChEMBL document CHEMBL4190309, “Synthesis, antimicrobial, DNA cleavage and antioxidant activities of tricyclic sultams derived from saccharin” (Eur J Med Chem, 2017).)
